# Source: patent US8202844B2, “Indole antiviral compositions and methods” (The Regents of the University of Michigan, priority 2003, dated 2012)
# pIC50: −log10 of the molar value. Read-outs that look alike come from different tables or passages of the source.
# How the values were obtained:
# [1] = tested on: human cytomegalovirus (HCMV); conditions: cited from earlier work; for activity against HCMV: literature reports
# uninfected host cells = conditions: cited from earlier work
# [2] = tested on: human cytomegalovirus (HCMV); experiment: HCMV plaque reduction assay; format: cell-based, HCMV Towne strain in HFF cells; conditions: for pIC50: read-out: 50% Inhibitory Concentration, HCMV Activity
# Procedure: (§1) Virological procedures. The Towne strain, plaque-purified isolate Po, of HCMV was kindly provided by Dr. Mark Stinski, University of Iowa. The KOS strain of HSV-1 was used in most experiments and was provided by Dr. Sandra K. Weller, University of Connecticut. Stock HCMV was prepared by infecting HFF cells at a multiplicity of infection (m.o.i.) of <0.01 plaque-forming units (p.f.u.) per cell as detailed previously (Turk, et al., Agents Chemother. 1987, 31, 544-550, herein incorporated by reference). High titer HSV-1 stocks were prepared by infecting KB cells at an m.o.i. of <0.1 also as detailed previously (see Turk et al.). Virus titers were determined using monolayer cultures of HFF cells for HCMV and monolayer cultures of BSC-1 cells for HSV-1 as described earlier (Prichard, et al., J. Virol. Methods 1990, 28, 101-106, herein incorporated by reference). Briefly, HFF or BSC-1 cells were planted as described above in 96-well cluster dishes and incubated overnight at 37° C. The next day cultures were inoculated with HCMV or HSV-1 and serially diluted 1:3 across the remaining eleven columns of the 96-well plate. After virus adsorption the inoculum was replaced with fresh medium and cultures were incubated for seven days for HCMV, two or three days for HSV-1. Plaques were enumerated under 20-fold magnification in wells having the dilution which gave 5 to 20 plaques per well. Virus titers were calculated according to the following formula: Titer (p.f.u./mL)=number of plaques×5×3^n; where n represents the n^th dilution of the virus used to infect the well in which plaques were enumerated.
# HCMV plaque reduction assay. HFF cells in 24-well cluster dishes were infected with approximately 100 p.f.u. of HCMV per cm^2 cell sheet using the procedures detailed above. Following virus adsorption, the compounds, prepared as 10 mg/mL stock solutions in DMSO were diluted with growth medium and were added to duplicate wells in four to eight selected concentrations. After incubation at 37° C. for 7-10 days, cell sheets were fixed, stained with crystal violet and microscopic plaques enumerated as described above. Drug effects were calculated as a percentage of reduction in number of plaques in the presence of each drug concentration compared to the number observed in the absence of drug.
# (§2) Data Analysis. Dose response relationships were used to quantitate drug effects by linear regression of the percent inhibition of parameters derived in the preceding assays against log10 drug concentrations. Fifty percent inhibitory concentrations (IC50's) were calculated from the linear portions of the regression lines. Samples containing positive controls (acyclovir for HSV-1, GCV for HCMV, and 2-acetylpyridine thiosemicarbazone for cytotoxicity) were used in all assays.
# [3] = tested on: herpes simplex virus type 1 (HSV-1); experiment: HSV-1 ELISA; format: cell-based, HSV-1 KOS strain in BSC-1 cells
# Procedure: as §1
# HSV-1 ELISA. An ELISA was employed (Prichard, et al., Antiviral Res. 1990, 14, 181-206, herein incorporated by reference) to detect HSV-1. Ninety-six-well cluster dishes were planted with 10,000 BSC-1 cells per well in 200 μL per well of MEM(E) plus 10% calf serum. After overnight incubation at 37° C., selected drug concentrations in quadruplicate and HSV-1 at a concentration of 100 p.f.u./well were added. Following a 3-day incubation at 37° C., medium was removed, plates were blocked, rinsed, and horse radish peroxidase conjugated rabbit anti-HSV-1 antibody was added. Following removal of the antibody containing solution, plates were rinsed, and then developed by adding 150 μl per well of a solution of tetramethylbenzidine as substrate. The reaction was stopped with H2SO4 and absorbance was read at 450 and 570 nm. Drug effects were calculated as a percentage of the reduction in absorbance in the presence of each drug concentration compared to absorbance obtained with virus in the absence of drug.
# as §2
# [4] = Cytotoxicity in stationary HFF cells, microscopic inspection; format: cell-based; conditions: human, read-out: 50% Inhibitory Concentration, HFF Cytotoxicity
# Procedure: (§3) Cytotoxicity assays. Two different assays were used for routine cytotoxicity testing. (i) Cytotoxicity produced in stationary HFF cells was determined by microscopic inspection of cells not affected by the virus used in plaque assays (Turk, et al., Agents Chemother. 1987, 31, 544-550, herein incorporated by reference). (ii) The effect of compounds during two population doublings of KB cells was determined by crystal violet staining and spectrophotometric quantitation of dye eluted from stained cells as described earlier (Prichard, et al., Antiviral Res. 1991, 35, 1060-1065, herein incorporated by reference). Briefly, 96-well cluster dishes were planted with KB cells at 3000-5000 cells per well. After overnight incubation at 37° C., test compound was added in quadruplicate at six to eight concentrations. Plates were incubated at 37° C. for 48 h in a CO2 incubator, rinsed, fixed with 95% ethanol, and stained with 0.1% crystal violet. Acidified ethanol was added and plates read at 570 nm in a spectrophotometer designed to read 96-well ELISA assay plates.
# as §2
# [5] = Cytotoxicity in growing KB cells, crystal violet staining; format: cell-based; conditions: human, read-out: 50% Inhibitory Concentration, KB Cytotoxicity
# Procedure: as §3, §2
# [6] = tested on: human cytomegalovirus (HCMV); experiment: Literature activity against HCMV replication in vitro; format: cell-based
# [7] = Good et al.; cited from earlier work
# [8] = Human alphaherpesvirus 1, BSC-1, read-out: 50% Inhibitory Concentration, HSV-1 Activity
# [9] = Human betaherpesvirus 5, plaque reduction in HFF cells
# [10] = Human alphaherpesvirus 1, ELISA in BSC-1 cells, read-out: 50% Inhibitory Concentration, HSV-1 Activity
# [11] = stationary human foreskin fibroblasts (HFF cells)
Compound,activity against HCMV [1],"pIC50 ([2]; Human betaherpesvirus 5, HFF)","pIC50 [3, 8]",pIC50 [4],IC50 at 48 h [5] [µM],further results
"OC[C@H]1O[C@@H](n2c(Cl)cc3cc(Cl)c(Cl)cc32)[C@H](O)[C@@H]1O [Compound 4.2, 2,5,6-trichloro-1-(β-D-ribofuranosyl)indole, reference compound]",inactive,–,–,–,–,cytotoxicity (uninfected host cells; Chen et al.): non-cytotoxic
"O=Cc1c(Cl)n([C@@H]2O[C@H](CO)[C@@H](O)[C@H]2O)c2cc(Cl)c(Cl)cc12 [Compound 4.3, 2,5,6-trichloro-3-formyl-1-(β-D-ribofuranosyl)indole]",even more active than TCRB,6.70,4.40,4.35,45,"selectivity index (calculated by dividing the CC50 by the IC50) [6]: 195; pIC50 ([1]; Chen thesis, read-out: IC50 against HCMV): 6.64; CC50 (uninfected host cells; Chen thesis, read-out: CC50 against uninfected host cells): 45 µM"
"CN(C)c1c(C#N)c2cc(Cl)c(Cl)cc2n1[C@@H]1O[C@H](CO)[C@@H](O)[C@H]1O [Compound 4.14, 5,6-Dichloro-2-dimethylamino-3-cyano-1-(β-D-ribofuranosyl)indole]",–,–,–,–,90,"pIC50 [2, 9]: 4.77; pIC50 [3, 10]: < 4.00; pIC50 [4, 11]: 4.00"
"COC(=N)c1c(Cl)n([C@@H]2O[C@H](CO)[C@@H](O)[C@H]2O)c2cc(Cl)c(Cl)cc12 [Compound 4.34, Methyl 2,5,6-Trichloro-1-(β-D-ribofuranosyl)indole-3-formimidate]",–,–,–,–,90,"pIC50 [2, 9]: 6.40; pIC50 [3, 10]: 4.15; pIC50 [4, 11]: 4.00"
"CC(=O)OC[C@H]1O[C@@H](n2c(Cl)c(C(C)=O)c3cc(Cl)c(Cl)cc32)[C@H](O)[C@@H]1O [Compound 4.43, 2,5,6-Trichloro-3-acetyl-1-(5-O-acetyl-β-D-ribofuranosyl)indole]",–,–,–,–,–,"antiviral activity ([2]; virus not specified, HCMV and HSV-1 were used): comparable to the fully deprotected analog"
"C[C@H]1O[C@@H](n2c(Cl)c(C=O)c3cc(Cl)c(Cl)cc32)[C@H](O)[C@@H]1O [Compound 4.97, 2,5,6-Trichloro-3-formyl-1-(5-deoxy-β-D-ribofuranosyl)indole]",–,6.52,4.70,4.49,25,–
"CC(=O)OC[C@H]1O[C@@H](n2c(Br)c(C=O)c3cc(Cl)c(Cl)cc32)[C@H](O)[C@@H]1O [Compound 4.136, 5,6-Dichloro-2-bromo-3-formyl-1-(5-O-acetyl-β-D-ribofuranosyl)indole]",–,6.52,4.82,4.49,40,–
CC(C)Nc1nc2cc(Cl)c(Cl)cc2n1[C@H]1O[C@@H](CO)[C@H](O)[C@@H]1O [Compound 1263W94],very active,–,–,–,–,–
"OC[C@H]1O[C@@H](n2c(Cl)nc3cc(Cl)c(Cl)cc32)[C@H](O)[C@@H]1O [TCRB, 2,5,6-trichloro-1-(β-D-ribofuranosyl)benzimidazole]",potent and selective inhibitor,–,–,–,–,in vivo stability [7]: in vivo instability
